Measurements as given in patent US7375109B2, “Glycine-substituted thieno[2,3-d]pyrimidines with combined LH and FSH agonistic activity” (N.V. Organon, priority 2001, dated 2008).

Legend:
[1] = system: immature female mice; experiment: In vivo bioactivity: ovulation induction in immature mice; conditions: immature female mice primed with urinary FSH (Humegon 12.5 IU/animal); 50 mg/kg about 48 hours later; killed 24 hours after treatment
Procedure: To measure LH in vivo activity of compounds, ovulation induction in immature mice can be studied. In this assay immature female mice are primed with urinary FSH and approximately 48 hours later treated with a LH agonistic compound. The animals are killed after LH agonist treatment and the number of ova in the oviduct is microscopically assessed.
To measure in vivo activity of LH/FSH receptor agonistic compounds ovulation induction in immature mice were studied. In this assay immature female mice were primed with urinary FSH (Humegon 12.5 IU/animal). Approximately 48 hours later the animals were treated with a LH/FSH agonistic compound, the preparation of which is described in examples 1, 4, 9 and 17, at a dose-level of 50 mg/kg. The animals were killed 24 hours after LH/FSH agonist treatment and the number of ova in the oviduct was microscopically assessed. On average 10-15 animals were tested. The mean number of ova amounted 8 with the exception of the compound of example 17 (which was 0.4).

[2] = molecular target: T1, human FSH receptor (Homo sapiens, UniProt P23945); experiment: CHO-FSH in vitro bioactivity (CRE-luciferase reporter); format: cell-based; conditions: CHO cells transfected with human FSH receptor and luciferase reporter gene
T1 construct: expressed in transfected cells; host or cells: CHO cells transfected with human FSH receptor and CRE-luciferase reporter
T1 sequence (P23945 18-695): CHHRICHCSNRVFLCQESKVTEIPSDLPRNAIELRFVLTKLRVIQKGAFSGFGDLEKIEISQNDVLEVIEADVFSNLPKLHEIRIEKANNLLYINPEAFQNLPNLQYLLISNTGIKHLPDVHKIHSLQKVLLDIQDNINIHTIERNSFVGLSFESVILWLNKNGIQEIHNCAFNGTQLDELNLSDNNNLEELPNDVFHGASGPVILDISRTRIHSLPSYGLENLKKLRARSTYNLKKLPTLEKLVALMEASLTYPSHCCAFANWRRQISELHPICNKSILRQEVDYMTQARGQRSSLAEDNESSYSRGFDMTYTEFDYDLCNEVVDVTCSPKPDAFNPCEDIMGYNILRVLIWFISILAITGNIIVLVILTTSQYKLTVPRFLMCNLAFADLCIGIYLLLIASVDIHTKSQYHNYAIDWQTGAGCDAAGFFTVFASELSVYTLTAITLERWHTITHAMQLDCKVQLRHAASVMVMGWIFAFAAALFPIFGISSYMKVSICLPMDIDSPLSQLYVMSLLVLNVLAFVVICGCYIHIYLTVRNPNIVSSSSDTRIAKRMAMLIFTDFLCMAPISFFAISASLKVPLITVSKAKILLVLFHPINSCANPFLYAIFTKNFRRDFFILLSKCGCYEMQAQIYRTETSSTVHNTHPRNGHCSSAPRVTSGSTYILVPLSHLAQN
Procedure: (§1) It has been shown that compounds of the above mentioned formula I show agonistic LH and FSH activity. […] Typically the FSH activity ranges from an activity of about 0.1% of the LH agonist stimulation to about 10% of the LH agonist stimulation.
(§2) LH agonistic activity of compounds were tested in Chinese Hamster Ovary (CHO) cells stably transfected with the human LH receptor and cotransfected with a cAMP responsive element (CRE)/promotor directing the expression of a firefly luciferase reporter gene. Binding of ligand to the Gs-coupled LH receptor will result in an increase of cAMP, which in turn will induce an increased transactivation of the luciferase reporter construct. The luciferase signal was quantified using a luminescence counter. For test compounds, EC50 values (concentration of test compound causing half-maximal (50%) stimulation) were calculated. For that purpose the software program GraphPad PRISM, version 3.0 (GraphPad software Inc., San Diego) was used.
In a similar way FSH agonistic activity of compounds were tested in CHO cells transfected with the luciferase reporter gene and the human FSH receptor.

[3] = molecular target: T2, human LH receptor (Homo sapiens, UniProt P22888); experiment: CHO-LH in vitro bioactivity (CRE-luciferase reporter); format: cell-based; conditions: CHO cells stably transfected with human LH receptor
T2 construct: expressed in transfected cells; host or cells: Chinese Hamster Ovary (CHO) cells, stably transfected; cotransfected with CRE-luciferase reporter
T2 sequence (P22888 27-699): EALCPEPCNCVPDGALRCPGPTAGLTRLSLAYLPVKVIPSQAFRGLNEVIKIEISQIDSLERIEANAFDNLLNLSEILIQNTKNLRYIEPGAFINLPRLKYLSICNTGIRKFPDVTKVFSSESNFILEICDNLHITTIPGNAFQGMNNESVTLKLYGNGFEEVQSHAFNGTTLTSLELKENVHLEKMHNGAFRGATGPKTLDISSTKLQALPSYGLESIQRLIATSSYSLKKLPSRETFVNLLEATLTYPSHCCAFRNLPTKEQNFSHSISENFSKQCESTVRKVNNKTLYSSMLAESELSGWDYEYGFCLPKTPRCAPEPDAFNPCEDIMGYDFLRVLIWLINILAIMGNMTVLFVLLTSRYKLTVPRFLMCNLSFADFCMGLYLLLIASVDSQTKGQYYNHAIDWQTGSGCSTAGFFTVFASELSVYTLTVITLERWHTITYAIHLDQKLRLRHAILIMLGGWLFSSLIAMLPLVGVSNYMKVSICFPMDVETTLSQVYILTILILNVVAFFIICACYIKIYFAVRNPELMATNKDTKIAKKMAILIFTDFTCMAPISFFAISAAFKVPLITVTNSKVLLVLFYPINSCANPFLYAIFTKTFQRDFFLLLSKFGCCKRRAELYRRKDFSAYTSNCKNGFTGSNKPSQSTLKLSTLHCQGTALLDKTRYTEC
Procedure: as §1, §2

Structure (SMILES)	mean number of ova in the oviduct [1]	EC50 [2] [nM]	EC50 [3] [nM]
CSc1nc(-c2cccc(NC(=O)CN(C)CCO)c2)c2c(N)c(C(=O)NC(C)(C)C)sc2n1 [Example 1, tert-Butyl 5-amino-2-methylthio-4-(3-((N-methyl-N-(2-hydroxyethyl)-glycinyl)-amino)-phenyl)-thieno[2,3-d]pyrimidine-6-carboxamide]	8	56.9	2.73
CCN(CCOC)CC(=O)Nc1cccc(-c2nc(SC)nc3sc(C(=O)NC(C)(C)C)c(N)c23)c1 [Example 4, tert-Butyl 5-amino-2-methylthio-4-(3-((N-ethyl-N-(2-methoxyethyl)-glycinyl)-amino)-phenyl)-thieno[2,3-d]pyrimidine-6-carboxamide]	8	101	7
CCN(CCO)CC(=O)Nc1cccc(-c2nc(-c3ccccc3)nc3sc(C(=O)NC(C)(C)C)c(N)c23)c1 [Example 9, tert-Butyl 5-amino-2-phenyl-4-(3-((N-ethyl-N-(2-hydroxyethyl)-glycinyl)-amino)-phenyl)-thieno[2,3-d]pyrimidine-6-carboxamide]	8	606	4.82
CCNc1nc(-c2cccc(NC(=O)CN(CC)CCOC)c2)c2c(N)c(C(=O)NC(C)(C)C)sc2n1 [Example 17, tert-Butyl 5-amino-2-ethylamino-4-(3-((N-ethyl-N-(2-methoxyethyl)-glycinyl)-amino)-phenyl)-thieno[2,3-d]pyrimidine-6-carboxamide]	0.4	1250	10.4
